Measured values reported in PMC6010069, “The RFK catalytic cycle of the pathogen Streptococcus pneumoniae shows species-specific features in prokaryotic FMN synthesis” (Journal of Enzyme Inhibition and Medicinal Chemistry, 2018).
Like-named read-outs stand apart in the source and are kept apart here.

Columns and labels:
[1] = biological target: T1, SpnFADS (Streptococcus pneumoniae, UniProt A0A0H2UPY5); assay: RFK activity, HPLC of flavins, global Lineweaver-Burk fit; type: biochemical
T1 construct: gene SP_1110; full-length bifunctional enzyme from pET-15b in E. coli BL21 Star (DE3), His6-tag removed; riboflavin kinase activity of the C-terminal module; functional form monomer
T1 sequence (A0A0H2UPY5 1-305): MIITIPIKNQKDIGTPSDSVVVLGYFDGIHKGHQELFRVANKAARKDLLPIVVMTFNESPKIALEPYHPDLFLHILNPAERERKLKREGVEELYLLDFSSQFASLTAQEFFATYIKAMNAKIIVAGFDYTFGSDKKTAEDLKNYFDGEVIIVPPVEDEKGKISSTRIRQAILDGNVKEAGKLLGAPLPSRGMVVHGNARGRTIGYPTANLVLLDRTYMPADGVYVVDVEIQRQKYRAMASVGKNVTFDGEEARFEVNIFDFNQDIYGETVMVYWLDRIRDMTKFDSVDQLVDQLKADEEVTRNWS
Source text: (§1) RFK activity, HPLC of flavins, global Lineweaver-Burk fit on SpnFADS

[2] = biological target: T1, SpnFADS; assay: stopped-flow flavin fluorescence, Kd from koff and kon; type: binding
Source text: stopped-flow flavin fluorescence, Kd from koff and kon on SpnFADS

[3] = biological target: T1, SpnFADS; assay: biochemical; set-up: Isothermal titration calorimetry, ligand titrated into free or ligand-pre-bound SpnFADS, 20 °C, PIPES pH 7.0
Protocol: We performed isothermal titration calorimetry (ITC) assays to elucidate both the ligand binding order and the thermodynamic inhibition produced by the binding of the FLV and ANP ligands. Titrations were performed on an AutoITC200 (MicroCal, Malvern, UK) thermostated at 20 °C, as previously described. Approximately 25 µM SpnFADS contained in a 200 µL-cell was titrated with solutions of 180 µM RF, 250 µM FMN, or 350 µM ATP or ADP. Additionally, titrations with ANP ligands into mixtures that contain the protein pre-bound to FLV ligands were performed, as well as titrations with FLV ligands into pre-bound SpnFADS:ANP complexes. The titrations were conducted through 19 stepwise injections of 2 µL of the titrating ligand to the calorimetric cell, as previously described[21]^,[26]. Both the ligands and the protein were dissolved in 20 mM PIPES, pH 7.0, either in presence of 0.8 mM MgCl2 or in absence of this cation, and degassed before the titration. The enthalpy change (ΔH), the association constant (Ka), and the binding stoichiometry (N) were obtained through non-linear least squares regression of the data using a homemade fitting routine corresponding to a model for one or two independent binding sites, implemented in Origin 7.0 (OriginLab, Northampton, MA, USA), as previously described[21]^,[26]. The Gibbs free energy (ΔG), the entropic contribution (−TΔS), and the dissociation constant (Kd) were obtained using well-known thermodynamic equations. Cooperativity constants (α) between ANP and FLV ligands were obtained as previously described[23]^,[27]^,[28]. Particular titrations with ANP ligands into mixtures of the protein and 100 µM FLV were fit to a homemade fitting routine corresponding to a model that considers the influence of the FLV ligand in the protein binding affinity for the ANP ligand[27]^,[28]. Experiments were performed in triplicate. The errors considered in the measured parameters (±15% in Kd and Ka values, ±0.3 kcal mol^−1 in ΔG, ΔH, and −TΔS and ±20% in α) were assumed to be larger than the standard deviation between replicates and the numerical error after fitting analysis.

[4] = substrate: Cc1cc2nc3c(=O)[nH]c(=O)nc-3n(C[C@H](O)[C@H](O)[C@H](O)CO)c2cc1C; assay: RFK activity, HPLC of flavins, global Lineweaver-Burk fit; type: biochemical, Streptococcus pneumoniae; conditions: co-substrate ATP, 20 mM PIPES pH 7.0, 0.8 mM MgCl2, 25 °C
Source text: as §1

[5] = substrate: Nc1ncnc2c1ncn2[C@@H]1O[C@H](COP(=O)(O)OP(=O)(O)OP(=O)(O)O)[C@@H](O)[C@H]1O; assay: as above; type: biochemical, Streptococcus pneumoniae; conditions: co-substrate RF, 20 mM PIPES pH 7.0, 0.8 mM MgCl2, 25 °C
Source text: as §1

[6] = enzyme pre-bound to ADP, 0.8 mM MgCl2
[7] = enzyme pre-bound to ADP, no MgCl2, read-out: Kd (μM), 0.0 mM MgCl2

Question: With Nc1ncnc2c1ncn2[C@@H]1O[C@H](COP(=O)(O)OP(=O)(O)O)[C@@H](O)[C@H]1O [ADP, adenosine 5′-diphosphate] as the molecule, how does the Ki ([1]; read-out: Ki^ADP) read?
Answer: 130000 ± 16000 nM

Question: Which results are given for Cc1cc2nc3c(=O)[nH]c(=O)nc-3n(C[C@H](O)[C@H](O)[C@H](O)CO)c2cc1C [RF, riboflavin]?
Answer: Kd [2]: 570 ± 140 nM; Kd [3, 6]: 1.6 µM; Kd [3, 7]: 0.3 µM; Kd ([3]; enzyme pre-bound to ATP, no MgCl2, read-out: Kd (μM), 0.0 mM MgCl2): 2.5 µM

Question: Cc1cc2nc3c(=O)[nH]c(=O)nc-3n(C[C@H](O)[C@H](O)[C@H](O)COP(=O)(O)O)c2cc1C [FMN, flavin mononucleotide] was tested. Which Kd [2] did it give?
Answer: 760 ± 240 nM

Question: And the Kd [3, 6]?
Answer: 2.3 µM

Question: And the Kd [3, 7]?
Answer: 7.9 µM

Question: What about the Kd ([3]; enzyme pre-bound to ATP, 0.8 mM MgCl2) of the same molecule?
Answer: 1.6 µM

Question: And the Ki ([1]; read-out: Ki^FMN)?
Answer: 1300 ± 400 nM

B1: SpnFADS (Streptococcus pneumoniae TIGR4) (protein)
chain: MIITIPIKNQKDIGTPSDSVVVLGYFDGIHKGHQELFRVANKAARKDLLPIVVMTFNESPKIALEPYHPDLFLHILNPAERERKLKREGVEELYLLDFSSQFASLTAQEFFATYIKAMNAKIIVAGFDYTFGSDKKTAEDLKNYFDGEVIIVPPVEDEKGKISSTRIRQAILDGNVKEAGKLLGAPLPSRGMVVHGNARGRTIGYPTANLVLLDRTYMPADGVYVVDVEIQRQKYRAMASVGKNVTFDGEEARFEVNIFDFNQDIYGETVMVYWLDRIRDMTKFDSVDQLVDQLKADEEVTRNWS
notes: full-length bifunctional enzyme from pET-15b in E. coli BL21 Star (DE3), His6-tag removed; riboflavin kinase activity of the C-terminal module; functional form monomer
Question: For B1, which Km [4] is on record?
Answer: 1.2 ± 0.3 µM

Question: What about the kcat [4] of the same molecule?
Answer: 0.917 ± 0.033 s⁻¹

Question: And the Km [5]?
Answer: 75 ± 7 µM

Question: And the kcat [5]?
Answer: 0.917 ± 0.033 s⁻¹
